Source: ChEMBL document CHEMBL3507680, “University of Dundee, Gates Library screen for HepG2 cell viability”

Experiment: Human HepG2 cell viability assay in 384 well format
Format: toxicity, cell-based
Parameters: dose 125 nL, time 70.5 hour; cytotoxicity at 70.5 h: concentration not given beside the values
Details: HepG2 cells, read-out: Inhibition

Structure (SMILES) | cytotoxicity at 70.5 h
Cn1cc(C[C@H]2[C@H](N3CCOCC3)CCN2C(=O)c2ccco2)cn1 | 5.32%
N#CCCN(C(=O)CN1CCCC1c1ccccc1Cl)c1ccccc1 (stereo not drawn) | -11.7%
CS(=O)(=O)NC1CCN(C(=O)c2cnc(-c3cccnc3)nc2)CC1 | -7.35%
COCC1CC2(CCN(C(=O)c3cccn3C)CC2)CN1C(C)C (stereo not drawn) | -0.557%
CC(NC(=O)NCc1cccc(N2CCCC2=O)c1)c1ccccc1 (stereo not drawn) | -12.2%
CC(C)CC(=O)N1CC(=O)N(Cc2ccco2)CC(O)C1 (stereo not drawn) | 8.54%
Cc1cccc(CNC2CC(=O)N(CCc3cccc(Cl)c3)C2)n1 (stereo not drawn) | -8.39%
Cc1nc(C)n(C2CCCN(C(=O)c3ccc(F)c(F)c3)C2)n1 (stereo not drawn) | -2.21%
Cc1ccsc1C(=O)N1C[C@@H](C(=O)O)[C@H](C(C)C)C1 | 0.968%
O=C(CCc1ccccn1)N1CCCC(n2cncn2)C1 (stereo not drawn) | -13.6%
Cn1cc(N2CCC3(CCCN(Cc4ccoc4)C3)C2=O)cn1 (stereo not drawn) | -6.63%
CC(C)c1nc2c(n1C)CCN(CC(=O)Nc1cccnc1)C2 | -9.65%
N#Cc1cnn(-c2ccc(C(=O)Nc3ccccn3)cc2)c1N | 25.3%
CNC(=O)c1ccc(C(=O)N2CCCC(n3cc(C)cn3)C2)cn1 (stereo not drawn) | 40.9%
COc1cccc(CN2CCCC3(CCN(C(=O)N4CCCC4)C3)C2)c1 (stereo not drawn) | -7.71%
CCn1c(N)nc2cc(C(=O)NCCc3sccc3C)cnc21 | -4.44%
CCCn1cc(S(=O)(=O)N[C@H]2CN(CC(N)=O)C[C@@H]2C2CC2)cn1 | -9.29%
c1ccc2c(Cc3nnc([C@H]4CCN(C5CCCCC5)C4)o3)c[nH]c2c1 | -0.596%
Cc1nc(C(=O)N2CCC3(CC2)CC(=O)N(CC2CCCO2)C3)cs1 (stereo not drawn) | -9.89%
Cc1ccc(CNC(=O)CN2CCCC(Cn3cncn3)C2)cc1 (stereo not drawn) | -2.99%
O=S(=O)(NCCN1CCOCC1)c1cncc(Cl)c1 | 4.99%
CCc1cnc(N2C[C@H]3CCCC(N(C)Cc4ccccn4)[C@H]3C2)nc1 (stereo partly drawn) | -10.1%
CCC(C)NC(=O)CS(=O)(=O)Cc1nc(-c2cccs2)no1 (stereo not drawn) | -8.46%

Structure (SMILES) | cytotoxicity at 70.5 h
O=C(c1cccnc1-n1cncn1)N1CCN(C2CCCC2)CC1 | -5.59%
CN1CCC2(CC1)C(=O)N(c1cccnc1)c1ccc(F)cc12 | -0.57%
Cc1nc(CN2CCN(C(C)c3nc(C(C)C)no3)CC2)oc1C (stereo not drawn) | -0.487%
CNc1cc(C2CN(Cc3coc(C)n3)CCO2)nc(C)n1 (stereo not drawn) | -8.75%
CC1CN(S(=O)(=O)c2ccc(C(=O)NCC(F)F)cc2)CCCO1 (stereo not drawn) | -0.0719%
Cc1ccc(OCC(O)CN(C)CC(=O)NC(C)C)c(C)c1 (stereo not drawn) | 3.84%
CN1CCC(c2cncc(-c3cccc(Cl)c3)n2)CC1 | -2.71%
CC(C)=CCN1CCC(c2nccn2Cc2cscn2)CC1 | -2.36%
CC(C)(O)C1CCN(C(=O)Nc2nc(-c3ccccc3)ns2)CC1 | -4.79%
O=C(c1ccoc1)N1CCOC2(COCCN(c3ncccn3)C2)C1 (stereo not drawn) | -7.67%
Cc1ncnc2c1CCN(c1cc(C(F)(F)F)ncn1)CC2 | -17.8%
CC(C)C(NC(=O)NCCNc1ncccn1)c1cccs1 (stereo not drawn) | -6.23%
CCN(C)CC1CCN(C(=O)Nc2ccc(-c3cc[nH]n3)cc2)C1 (stereo not drawn) | 11.5%
Cn1ccnc1CNC(=O)c1ccnc(C2CCNCC2)c1 | -6.57%
Cc1ccc(C2NC(=O)c3cc(C(C)C)sc3N2)cc1 (stereo not drawn) | -5.82%
Cc1cccc(C2(CNC(=O)CCN3C(=O)CCC3=O)CCCC2)c1 | 21%
CCN(Cc1cnn(C)c1)C[C@H]1CC[C@@H](Cc2ccc(OC)nc2)O1 | -8.42%
COc1ccc(CNCCC(=O)N2CCc3sccc3C2)cc1O | 5.44%
CCN(C(=O)c1ccc2nnc(C3CCN(CCOC)C3)n2c1)C(C)C (stereo not drawn) | -13.6%
O=C(NC1CC1)C1(Cc2cc(-c3ccc(F)cc3F)no2)CCOCC1 | 0.221%
Cc1cc(C(F)(F)F)nc(C2CCN(C(=O)CO)CC2)n1 | -6.47%
O=C(NCCN1CCCCC1)c1ccn(-c2ccccc2)n1 | 24.7%
COc1ccccc1OCC(=O)Nc1ncccc1OC(F)F | -7.67%

Structure (SMILES) | cytotoxicity at 70.5 h
CN(C)C(=O)Cc1nc(CN2CCn3c(nnc3C3CC3)C2)cs1 | -18.5%
CCn1nnnc1-c1cccc(NC(=O)CCn2cc(C)cn2)c1 | -7.36%
Cc1nn(CC(=O)N2CCN(c3ncccn3)CC2)c(C)c1Cl | 21.2%
Cc1nc(C)n(CC2CN(Cc3ccccc3OC(C)C)CCO2)n1 (stereo not drawn) | -9.52%
CC(=O)N1CCC(c2nc(C)cc(-c3ccccc3C(=O)O)n2)CC1 | -3.01%
COc1ccc(N2CCN(C(=O)C3CN(C)C(=O)N3)CC2(C)C)cc1 (stereo not drawn) | -8.78%
Cc1cc(C(=O)NCc2ccnc(N(C)C)c2)c(C)o1 | -13.2%
Cn1cc(C2CCCN2C(=O)Cn2c(=O)oc3ccccc32)cn1 (stereo not drawn) | -4.25%
CCOC(=O)c1cnn(-c2cc(Oc3ccccc3)ncn2)c1N | 3.77%
O=C(NCC1CC1)C1=NOC2(CCN(S(=O)(=O)Cc3ccccc3)C2)C1 (stereo not drawn) | -5.14%
CC(C)NC1CCc2c(ccc(=O)n2CCN2CCCC2=O)C1 (stereo not drawn) | -4.58%
CC(C)S(=O)(=O)CC(=O)N(Cc1ccsc1)c1ccccc1 | -7.19%
CSc1cc2c(cc1NC(=O)NCC(C)(C)C(N)=O)OCCO2 | -1.42%
Cc1ccc(CN(C)Cc2cc(C3CC3)[nH]n2)c(O)n1 | -5.35%
O=C(CS(=O)(=O)c1cccc[n+]1[O-])NC1CCCc2ccccc21 (stereo not drawn) | 1.9%
O=C(NCC1CCC1)c1cccc(CN2CCS(=O)(=O)CC2)c1 | -16.2%
CCc1nc(NS(=O)(=O)c2ccc(F)cc2Cl)no1 | -8.4%
COCC(=O)N1CCCC1c1nccnc1Nc1ncccn1 (stereo not drawn) | -3.81%
O=C(NCc1ccccc1)[C@H]1C[C@@H]2CN(C(=O)NC3CCCC3)C[C@H]1O2 | 16.8%
CN(C(=O)Cn1nc(-c2ccccc2)ccc1=O)C1CCS(=O)(=O)C1 (stereo not drawn) | -12.1%
Cc1ccc2c(n1)N(CCN(C)C)CCN(Cc1c(C)noc1C)C2 | -2.08%
FC1(F)CCNCC12CCN(c1cccnc1)C2 (stereo not drawn) | 13.7%
Cc1ccc([C@@H]2CN(C(=O)CCc3ccco3)C[C@H]2N(C)C)cc1 | 0.00383%

Structure (SMILES) | cytotoxicity at 70.5 h
Cc1nnc2n1CCN(CCOc1ccccc1C#N)C2 | 11.3%
Cc1cc(C(F)(F)F)nc(CNc2cc(C)nc3cc(C)nn23)n1 | -2.86%
CN(C)C(=O)CCCS(=O)(=O)Cc1cc(Cl)c2c(c1)OCO2 | -2.84%
COc1ccc(C(=O)N(C)Cc2ncc(C)c(OC)c2C)c(OC)c1 | -4.31%
Cc1nc2c(c(N3CCC(CN4CCCC4=O)CC3)n1)CCNCC2 | -5.86%
Cc1nn(C)cc1Cn1c(=O)ccc2ccccc21 | -3.85%
CN(C)CCOCC1CN(Cc2ccsc2)Cc2nnn(C)c21 (stereo not drawn) | 30.5%
COc1cccc2cc(CNC(=O)N3CCS(=O)(=O)CC3)oc12 | 12.1%
COc1cc(OC)cc(N2CCC(NC(=O)c3ccc[nH]3)CC2)c1 | -7.63%
O=C(c1ccco1)N1C[C@H]2CN(Cc3cccc(F)c3)C(=O)[C@H]2C1 | -7.79%
Cc1cc(=O)n2nc(Oc3cccc(I)c3)sc2n1 | -20.9%
O=C1CCC2(CCNCC2)CN1Cc1nncn1CCc1ccccc1 | -8.25%
CN1Cc2nnc(C3CCOCC3)n2C(Cc2c[nH]cn2)C1 (stereo not drawn) | -1.52%
COc1ccc(NC(=O)Cn2c(=O)nc(N)c3cc(C)sc32)cc1 | -13.1%
CC(C)NC(=O)NCc1nnc2n1C(C(=O)N(C)C)CC2 (stereo not drawn) | -3.97%
CN(C)c1nc2c(c(N3CCc4ccccc4C3)n1)CCNC2 | 0.802%
CC1(C)CC(N2Cc3nc(N4CCOCC4)ncc3C2=O)CC(C)(C)N1 | 13.3%
CCCc1cc(C(=O)N2CCOC(c3nc(-c4cccs4)no3)C2)no1 (stereo not drawn) | 1.76%
CN1CCN(C(=O)N2CC[C@@](O)(c3ccccc3)[C@H]3CCCC[C@@H]32)CC1 | -5.89%
O=C(NCc1ccccc1Cn1cncn1)C1CCC1 | -4.18%
CC(C)[C@@H]1CN(Cc2cnc(C3CCCCC3)nc2)C[C@H]1N(C)C | 8.03%
Cc1nn(C)c2c(NCc3cccnc3)nc(C(C)C)nc12 | 12.4%
CCC(C)CS(=O)(=O)NC(=O)C1CC1 (stereo not drawn) | -5.06%

Structure (SMILES) | cytotoxicity at 70.5 h
CCN(CCCN1CCOCC1)C(=O)c1cnn(CC)c1 | 2.38%
Cc1nc(C)n(CC2CN(CCOc3ccccc3C#N)CCO2)n1 (stereo not drawn) | -8.64%
Cc1ccc2c(c1)C(=O)NCC1(CCN(Cc3ccccc3)CC1)O2 | -6.17%
CCCN(C)C(=O)c1ccc2c(c1)[nH]c(=O)n2CCOCC | 13.7%
Cc1ccnc(NC(=O)c2cncc(C3CCNCC3)n2)c1 | -10.4%
COCC(C)(C#N)NC(=O)COc1ccccc1 (stereo not drawn) | -0.947%
CC1(NC(=O)Cc2csc(C(C)(C)C)n2)CCS(=O)(=O)C1 (stereo not drawn) | 18.9%
Cc1ccc(C)c(NC(=O)N(C)Cc2cnn(C)c2)c1 | -3.32%
CCOc1ccc(N2CCC(C(O)c3ccccc3)CC2)nn1 (stereo not drawn) | 51.9%
CC(=O)NCc1ccc(C(=O)N2CCCCC2Cn2cccn2)o1 (stereo not drawn) | 8.35%
COc1c(Cl)cccc1NCc1csc(C)n1 | -8.65%
Cc1cccc2c1ccn2CCC(=O)O | 3.02%
COc1ccc(N2CCNC(C(N)=O)C2)cc1 (stereo not drawn) | 18.6%
Cc1cc(C(=O)NCCc2nc3c(s2)CCCC3)n(C)n1 | -3.4%
Cn1cc(CNC[C@H]2Cn3ccnc3CO2)c2ccccc21 | -5.61%
CC(CN(C)C(=O)c1cn(C)nc1-c1ccc(F)cc1F)C(=O)O (stereo not drawn) | -1.61%
Cc1ccc(C(=O)N2CCN(CCc3ccccc3)CC2)c(=O)[nH]1 | -7.75%
CN(C)S(=O)(=O)N1CC[C@]2(C[C@@H](OCc3ccccn3)CO2)C1 | -1.04%
O=C(CN1CCC(c2cccc(F)c2)C1)NCc1ccco1 (stereo not drawn) | 59.3%
NC(=O)NC(=O)CCN(Cc1ccccc1)CC1CCOCC1 | -2.94%
CCc1nnc(CN2CCCC(c3cc(C(N)=O)[nH]n3)C2)o1 (stereo not drawn) | -6.39%
